What was measured:
CHO-K1 [1] = assay: benchmark concentration for 30% increase in micronucleus frequency (BMC30); higher = less potent clastogen; conditions: S9 metabolic activation: with S9
Description: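 Benchmark concentration modelling (PROAST, Hill/exponential model families) of the 19-concentration flow-cytometric micronucleus assay in CHO-K1 cells, with and without rat liver S9. Only non-cytotoxic and adequate (relative survival >=40%) concentrations were used. BMR was a 30% increase in %MN (BMC30) or a 60% increase in %hypodiploid (BMC60) over control.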

CHO-K1 [2] = assay: benchmark concentration for 60% increase in hypodiploid frequency (BMC60); higher = less potent aneugen; conditions: S9 metabolic activation: with S9
Summary of the method: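 Hypodiploid nuclei percentages were measured by flow cytometry in CHO cells exposed to 19 concentrations of 4.50–200 µM, either 24 h at 37 °C without S9 or 3–4 h with Aroclor 1254-induced rat liver S9 plus 24 h recovery. Concentrations below 40% relative survival were dropped, and a 60% increase over DMSO control served as the benchmark response. PROAST fitted the benchmark concentration with Hill and exponential model families.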

CC(C)(C)c1cc(O)ccc1O [tert-Butylhydroquinone]
benchmark concentration (CHO-K1 [1]): 22 µM
benchmark concentration (CHO-K1 [2]): 23 µM

— the supplement of paper PMC9151546
